Measurements taken from patent US11220527B2, “Peptides derived from the propeptide NTSR3 and their use in the treatment of depression” (CENTRE NATIONAL DE LA RECHERCHE SCIENTIFIQUE, priority 2016, dated 2022).
Where no end group is shown, it is not given here.

What was measured:
[1] = Learned helplessness test (LHT); format: in vivo; details: mice, bolus of 100 μL of a 10^-6 M solution 30 minutes before conditioning, FIG. 4
Method: Learned resignation or learned helplessness is a model based on the repeated administration of electric shocks to induce a resigned state in the animal.
The apparatus comprises two compartments separated by a sliding door and with a floor consisting of a metal grid through which the electrical pulses are administered. The learned helplessness protocol is divided into two stages, an animal conditioning stage and a test stage.
The conditioning was carried out over a period of four days during which time the mice received 360 non-avoidable electric shocks of 0.3 mA for one hour (the door, separating the two compartments, being closed). The shocks lasted for 2 seconds and an interval of 8 seconds was respected between each shock. This conditioning step leads to a phenomenon of helplessness in animals.
On the day of the test, the mice were placed in the same compartments but with a possibility of escaping the shock. The test counted 30 trials. During the administration of the shock, the door separating the two compartments opened, allowing the animals to flee. When the animal changes compartment the test is finished and the shock stops. […] This test made it possible to record the escape latencies of the animals. The thirty tests were then grouped by 5 and the average escape time was calculated. […]

TREK-1 channel = biological target: T1, TREK-1 channel (Homo sapiens, UniProt O95069); experiment: Whole-cell patch clamp of TREK-1 channel activity in hTREK-1/HEK293 cells; format: cell-based; set-up: expressed in transfected cells; details: dose-response measured at 0 mV, sigmoidal fit, FIG. 2; read-out: half-effect concentration (IC50) of TREK-1 channel activity inhibition
T1 sequence (O95069 1-426): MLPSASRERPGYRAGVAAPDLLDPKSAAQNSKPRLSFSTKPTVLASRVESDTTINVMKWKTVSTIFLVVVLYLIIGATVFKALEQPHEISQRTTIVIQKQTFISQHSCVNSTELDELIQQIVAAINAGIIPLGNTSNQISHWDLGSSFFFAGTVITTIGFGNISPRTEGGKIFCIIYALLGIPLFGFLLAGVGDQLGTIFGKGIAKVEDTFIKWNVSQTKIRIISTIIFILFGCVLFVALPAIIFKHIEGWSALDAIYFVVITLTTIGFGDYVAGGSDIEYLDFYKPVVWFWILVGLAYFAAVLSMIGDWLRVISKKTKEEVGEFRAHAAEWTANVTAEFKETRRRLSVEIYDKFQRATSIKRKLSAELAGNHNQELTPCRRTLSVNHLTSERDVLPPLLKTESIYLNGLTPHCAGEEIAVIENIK
Method: All experiments measuring the effect of spadin analogs and spadin were performed on ßTC3 or LNCaP or HEK293 cells stably transfected with the TREK-1 channel, hTREK-1/HEK293. The hTREK-1/HEK293 cell line was prepared in the laboratory. These cells also express a reporter gene: E-Green Fluorescent Protein (EGFP) enabling their visualization.
These cells were seeded at a density of 20,000 cells/dish of 35 mm diameter, 24 to 72 hours before being used.
The HEK293 cells were cultured in DMEM medium (Gibco)/10% fetal calf serum (FCS, ICN)/1% streptomycin+penicillin mixture (Gibco)/1% glutamax (Gibco)/0.5 mg/mL of G418 (Sigma) at 37° C. in the presence of 5% CO2.
The LNCaP cells were cultured in DMEM medium (Gibco)/10% fetal calf serum (FCS, ICN)/1% streptomycin+penicillin mixture (Gibco)/1% glutamax (Gibco)/at 37° C. in the presence of 5% CO2. […] From day 2 to day 4, the cells were measured by electrophysiological methods.
All measurements were made at room temperature, i.e. at 21-22° C. The hTREK-1/HEK293 cells were identified by the fluorescence emitted by EGFP after excitation at 480 nm. […]
The cell culture medium was replaced with a solution 150 mM NaCl, 5 mM KCl, 3 mM MgCl2, 1 mM CaCl2, 10 mM HEPES/NaOH pH 7.4 containing 10 mM tetraethylammonium chloride, 3 mM 4-aminopyridine. […] The resting potential of the membrane of the measured cell was set at −80 mV. […]

AVSWGLR [G/A-PE(22-28), AVSWGLR]
escape latencies in the learned helplessness test [1]: capable of reducing the escape latencies
IC50 (TREK-1 channel): 0.12 nM
